Measured values taken from patent publication US12358886B2, “Heterocyclic compounds for use in the treatment of cancer” (Artios Pharma Limited, priority 2019, dated 2025).

Biological target: Polθ protein (amino acids 2-2590) (Homo sapiens, UniProt O75417)
Assay: Polθ full length enzyme potency assay (PicoGreen)
Settings: Polθ IC50 (nM), full length N-His, C-term FLAG tagged Polθ, PicoGreen fluorescence, 12 point concentration response

Sequence of Polθ protein (amino acids 2-2590) (O75417 2-2590): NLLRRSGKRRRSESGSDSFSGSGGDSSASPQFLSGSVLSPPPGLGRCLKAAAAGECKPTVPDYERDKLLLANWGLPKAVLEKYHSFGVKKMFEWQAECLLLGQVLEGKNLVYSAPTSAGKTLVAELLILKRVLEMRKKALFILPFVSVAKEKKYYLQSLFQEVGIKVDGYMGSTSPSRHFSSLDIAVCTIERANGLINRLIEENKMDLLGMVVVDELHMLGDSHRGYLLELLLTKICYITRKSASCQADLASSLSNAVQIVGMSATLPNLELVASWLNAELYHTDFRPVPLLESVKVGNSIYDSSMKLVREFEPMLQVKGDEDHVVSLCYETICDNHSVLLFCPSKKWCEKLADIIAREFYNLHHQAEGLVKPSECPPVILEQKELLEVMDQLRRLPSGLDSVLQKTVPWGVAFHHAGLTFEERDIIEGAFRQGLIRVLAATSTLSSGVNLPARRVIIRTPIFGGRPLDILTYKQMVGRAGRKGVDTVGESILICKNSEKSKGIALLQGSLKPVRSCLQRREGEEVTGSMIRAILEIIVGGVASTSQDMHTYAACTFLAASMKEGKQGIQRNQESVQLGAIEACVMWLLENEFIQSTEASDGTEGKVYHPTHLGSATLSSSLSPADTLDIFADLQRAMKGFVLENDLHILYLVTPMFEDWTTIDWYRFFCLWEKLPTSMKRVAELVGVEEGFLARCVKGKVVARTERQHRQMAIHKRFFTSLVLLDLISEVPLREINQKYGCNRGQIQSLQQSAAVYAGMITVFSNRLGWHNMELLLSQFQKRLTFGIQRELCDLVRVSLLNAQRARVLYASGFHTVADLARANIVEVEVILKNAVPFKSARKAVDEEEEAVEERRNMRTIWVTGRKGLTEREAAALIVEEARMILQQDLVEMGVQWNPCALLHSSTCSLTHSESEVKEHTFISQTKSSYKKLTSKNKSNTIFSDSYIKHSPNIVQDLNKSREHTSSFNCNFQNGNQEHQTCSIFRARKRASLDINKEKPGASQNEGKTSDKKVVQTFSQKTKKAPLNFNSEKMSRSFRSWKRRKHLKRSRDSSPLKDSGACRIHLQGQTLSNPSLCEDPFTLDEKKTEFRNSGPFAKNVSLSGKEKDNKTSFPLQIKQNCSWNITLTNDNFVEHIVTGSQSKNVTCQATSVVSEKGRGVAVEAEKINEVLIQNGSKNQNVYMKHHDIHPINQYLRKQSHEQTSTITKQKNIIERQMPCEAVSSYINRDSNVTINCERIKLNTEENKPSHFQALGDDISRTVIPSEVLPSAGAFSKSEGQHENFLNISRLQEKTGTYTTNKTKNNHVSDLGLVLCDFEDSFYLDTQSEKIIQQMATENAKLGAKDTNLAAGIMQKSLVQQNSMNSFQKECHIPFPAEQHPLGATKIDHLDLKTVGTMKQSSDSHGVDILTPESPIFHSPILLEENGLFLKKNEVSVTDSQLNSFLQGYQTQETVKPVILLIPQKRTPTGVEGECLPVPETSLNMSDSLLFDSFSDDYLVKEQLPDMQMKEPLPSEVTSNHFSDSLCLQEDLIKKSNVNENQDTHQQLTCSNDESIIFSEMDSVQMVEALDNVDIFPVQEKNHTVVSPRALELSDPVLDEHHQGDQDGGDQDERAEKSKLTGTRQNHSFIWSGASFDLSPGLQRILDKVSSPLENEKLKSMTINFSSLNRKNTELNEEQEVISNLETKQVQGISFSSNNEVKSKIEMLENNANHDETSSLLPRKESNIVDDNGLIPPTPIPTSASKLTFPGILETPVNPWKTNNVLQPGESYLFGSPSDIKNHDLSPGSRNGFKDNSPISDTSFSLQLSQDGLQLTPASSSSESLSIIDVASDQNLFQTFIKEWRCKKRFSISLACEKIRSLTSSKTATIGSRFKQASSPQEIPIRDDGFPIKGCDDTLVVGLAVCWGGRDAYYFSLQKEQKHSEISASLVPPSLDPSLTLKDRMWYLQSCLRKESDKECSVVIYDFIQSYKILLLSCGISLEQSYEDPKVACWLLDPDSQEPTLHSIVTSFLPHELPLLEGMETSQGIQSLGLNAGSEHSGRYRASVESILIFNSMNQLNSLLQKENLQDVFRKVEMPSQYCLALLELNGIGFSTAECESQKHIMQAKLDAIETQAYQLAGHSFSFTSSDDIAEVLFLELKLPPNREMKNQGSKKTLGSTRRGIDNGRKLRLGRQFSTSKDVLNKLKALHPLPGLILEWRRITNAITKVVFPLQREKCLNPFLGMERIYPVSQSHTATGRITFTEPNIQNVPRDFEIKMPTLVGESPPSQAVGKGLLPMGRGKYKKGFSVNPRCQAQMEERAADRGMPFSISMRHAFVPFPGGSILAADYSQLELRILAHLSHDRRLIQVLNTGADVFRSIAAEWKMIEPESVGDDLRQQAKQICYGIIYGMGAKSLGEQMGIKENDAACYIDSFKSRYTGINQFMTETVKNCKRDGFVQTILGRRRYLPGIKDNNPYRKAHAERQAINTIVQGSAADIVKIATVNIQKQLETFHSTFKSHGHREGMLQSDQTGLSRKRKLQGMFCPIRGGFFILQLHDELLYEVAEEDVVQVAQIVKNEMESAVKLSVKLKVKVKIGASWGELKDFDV

Row | IC50 | Structure (SMILES)
1 | 514 nM | COc1cc(C(F)(F)F)c(C#N)c(N2C[C@@H](O)C[C@H]2C(=O)N(C)c2cccc(C)c2)n1 [Example 30, (2S,4S)-1-(3-Cyano-6-methoxy-4-(trifluoromethyl)pyridin-2-yl)-4-hydroxy-N-methyl-N-(m-tolyl)pyrrolidine-2-carboxamide]
2 | 395 nM | CCN(C)c1cc(C(F)(F)F)c(C#N)c(N2C[C@@H](O)C[C@H]2C(=O)N(C)c2cccc(C)c2)n1 [Example 31, (2S,4S)-1-(3-Cyano-6-(ethyl(methyl)amino)-4-(trifluoromethyl)pyridin-2-yl)-4-hydroxy-N-methyl-N-(m-tolyl)pyrrolidine-2-carboxamide]
3 | 209 nM | Cc1cccc(N(C)C(=O)[C@@H]2C[C@H](O)CN2c2nc(N(C)C)cc(C(F)(F)F)c2C#N)c1 [Example 32, (2S,4S)-1-(3-Cyano-6-(dimethylamino)-4-(trifluoromethyl)pyridin-2-yl)-4-hydroxy-N-methyl-N-(m-tolyl)pyrrolidine-2-carboxamide]
4 | 30 nM | Cc1cccc(N(C)C(=O)[C@@H]2C[C@H](O)CN2c2nc(C)cc(C(C)C)c2C#N)c1 [Example 33, (2S,4S)-1-(3-Cyano-4-isopropyl-6-methylpyridin-2-yl)-4-hydroxy-N-methyl-N-(m-tolyl)pyrrolidine-2-carboxamide]
5 | 620 nM | CCc1cc(N2C[C@@H](O)C[C@H]2C(=O)N(C)c2cccc(C)c2)ncc1C [Example 35, (2S,4S)-1-(4-Ethyl-5-methylpyridin-2-yl)-4-hydroxy-N-methyl-N-(m-tolyl)pyrrolidine-2-carboxamide]
6 | 248 nM | CCN(C(=O)[C@@H]1C[C@H](F)CN1c1nc(C)cc(C)c1C#N)c1ccc(F)c(F)c1 [Example 37, (2S,4S)-1-(3-Cyano-4,6-dimethylpyridin-2-yl)-N-(3,4-difluorophenyl)-N-ethyl-4-fluoropyrrolidine-2-carboxamide]
7 | 273 nM | CCN(C(=O)[C@@H]1C[C@H](N)CN1c1nc(C)cc(C)c1C#N)c1cccc(C)c1 [Example 38, (2S,4S)-4-Amino-1-(3-cyano-4,6-dimethylpyridin-2-yl)-N-ethyl-N-(m-tolyl)pyrrolidine-2-carboxamide]
8 | 1760 nM | CCN(C(=O)[C@@H]1C[C@@H](N)CN1c1nc(C)cc(C)c1C#N)c1cccc(C)c1 [Example 40, (2S,4R)-4-Amino-1-(3-cyano-4,6-dimethylpyridin-2-yl)-N-ethyl-N-(m-tolyl)pyrrolidine-2-carboxamide]
9 | 263 nM | CCN(C(=O)[C@@H]1C[C@@H](N(C)C)CN1c1nc(C)cc(C)c1C#N)c1cccc(C)c1 [Example 41, (2S,4R)-1-(3-Cyano-4,6-dimethylpyridin-2-yl)-4-(dimethylamino)-N-ethyl-N-(m-tolyl)pyrrolidine-2-carboxamide]
10 | 25 nM | CCN(C(=O)[C@@H]1C[C@H](N2CCOCC2)CN1c1nc(C)cc(C)c1C#N)c1cccc(C)c1 [Example 42, (2S,4S)-1-(3-Cyano-4,6-dimethylpyridin-2-yl)-N-ethyl-4-morpholino-N-(m-tolyl)pyrrolidine-2-carboxamide]
11 | 227 nM | CCN(C(=O)[C@@H]1C[C@H](N(C)CCS(C)(=O)=O)CN1c1nc(C)cc(C)c1C#N)c1cccc(C)c1 [Example 46, (2S,4S)-1-(3-Cyano-4,6-dimethylpyridin-2-yl)-N-ethyl-4-(methyl(2-(methylsulfonyl)-ethyl)amino)-N-(m-tolyl)-pyrrolidine-2-carboxamide]
12 | 1560 nM | CCN(C(=O)[C@@H]1C[C@H](NC2CNC2)CN1c1nc(C)cc(C)c1C#N)c1cccc(C)c1 [Example 51, (2S,4S)-4-(Azetidin-3-ylamino)-1-(3-cyano-4,6-dimethylpyridin-2-yl)-N-ethyl-N-(m-tolyl)pyrrolidine-2-carboxamide]
13 | 121 nM | Cc1cccc(N(C)C(=O)[C@@H]2[C@@H](O)[C@@H](O)CN2c2nc(C)cc(C(F)(F)F)c2C#N)c1 [Example 53, (2S,3R,4S)-1-(3-Cyano-6-methyl-4-(trifluoromethyl)pyridin-2-yl)-3,4-dihydroxy-N-methyl-N-(m-tolyl)pyrrolidine-2-carboxamide]
14 | 13 nM | Cc1cccc(N(C)C(=O)[C@@H]2[C@H](O)[C@H](O)CN2c2nc(C)cc(C(F)(F)F)c2C#N)c1 [Example 54, (2S,3S,4R)-1-(3-Cyano-6-methyl-4-(trifluoromethyl)pyridin-2-yl)-3,4-dihydroxy-N-methyl-N-(m-tolyl)pyrrolidine-2-carboxamide]
15 | 118 nM | Cc1cccc(N(C)C(=O)[C@@H]2[C@H](O)[C@H](O)CN2c2nc(C)cc(C)c2C#N)c1 [Example 55, (2S,3S,4R)-1-(3-Cyano-4,6-dimethyl-pyridin-2-yl)-3,4-dihydroxy-N-methyl-N-(m-tolyl)-pyrrolidine-2-carboxamide]
16 | 42 nM | CCN(C(=O)[C@@H]1[C@H](O)[C@H](O)CN1c1nc(C)cc(C(F)(F)F)c1C#N)c1ccc(F)c(F)c1 [Example 56, (2S,3S,4R)-1-(3-Cyano-6-methyl-4-(trifluoromethyl)pyridin-2-yl)-N-(3,4-difluorophenyl)-N-ethyl-3,4-dihydroxypyrrolidine-2-carboxamide]
17 | 10 nM | CCN(C(=O)[C@@H]1[C@H](O)[C@H](O)CN1c1nc(C)cc(C(F)(F)F)c1C#N)c1ccc(F)c(Cl)c1 [Example 57, (2S,3S,4R)-N-(3-Chloro-4-fluoro-phenyl)-1-(3-cyano-6-methyl-4-(trifluoromethyl)pyridin-2-yl)-N-ethyl-3,4-dihydroxypyrrolidine-2-carboxamide]
18 | 7 nM | Cc1cccc(N(C)C(=O)[C@@H]2CCC(=O)N2c2cc(C(F)(F)F)cc(C)n2)c1 [Example 59, (S)—N-Methyl-1-(6-methyl-4-(trifluoromethyl)pyridin-2-yl)-5-oxo-N-(m-tolyl)pyrrolidine-2-carboxamide]
19 | 76 nM | Cc1cc(C(F)(F)F)cc(N2C(=O)CC[C@H]2C(=O)N(C)c2ccc(F)c(C)n2)n1 [Example 60, (S)—N-(5-Fluoro-6-methylpyridin-2-yl)-N-methyl-1-(6-methyl-4-(trifluoromethyl)pyridin-2-yl)-5-oxopyrrolidine-2-carboxamide]
20 | 136 nM | CCN(C(=O)[C@@H]1C[C@H](N)C(=O)N1c1cc(C(F)(F)F)cc(C)n1)c1ccc(F)c(Cl)c1 [Example 61, (2S,4S)-4-Amino-N-(3-chloro-4-fluorophenyl)-N-ethyl-1-(6-methyl-4-(trifluoromethyl)pyridin-2-yl)-5-oxopyrrolidine-2-carboxamide]
21 | 208 nM | CCN(C(=O)[C@@H]1C[C@H](NC(C)=O)C(=O)N1c1cc(C(F)(F)F)cc(C)n1)c1ccc(F)c(Cl)c1 [Example 62, (2S,4S)-4-Acetamido-N-(3-chloro-4-fluorophenyl)-N-ethyl-1-(6-methyl-4-(trifluoromethyl)pyridin-2-yl)-5-oxopyrrolidine-2-carboxamide]
22 | 410 nM | CCN(C(=O)[C@@H]1C[C@H](N2CCOCC2)C(=O)N1c1cc(C(F)(F)F)cc(C)n1)c1ccc(F)c(Cl)c1 [Example 63, (2S,4S)—N-(3-Chloro-4-fluorophenyl)-N-ethyl-1-(6-methyl-4-(trifluoro-methyl)pyridin-2-yl)-4-morpholino-5-oxopyrrolidine-2-carboxamide]
23 | 166 nM | CCN(C(=O)[C@@H]1C[C@H](O)CN1c1nc(C)cc(C(F)(F)F)n1)c1ccc(F)c(Cl)c1 [Example 64, (2S,4S)—N-(3-Chloro-4-fluorophenyl)-N-ethyl-4-hydroxy-1-(4-methyl-6-(trifluoromethyl)-pyrimidin-2-yl)pyrrolidine-2-carboxamide]
24 | 8 nM | Cc1cc(C(F)(F)F)cc(N2C(=O)[C@@H](O)[C@@H](O)[C@H]2C(=O)N(C)c2ccc(F)c(Cl)c2)n1 [Example 65, (2S,3S,4S)—N-(3-Chloro-4-fluorophenyl)-3,4-dihydroxy-N-methyl-1-(6-methyl-4-(trifluoromethyl)pyridin-2-yl)-5-oxopyrrolidine-2-carboxamide]
25 | 6 nM | Cc1cc(C(F)(F)F)cc(N2C(=O)[C@@H](O)[C@@H](O)[C@H]2C(=O)N(C)c2ccc(F)c(C)c2)n1 [Example 67, (2S,3S,4S)-N-(4-Fluoro-3-methyl-phenyl)-3,4-dihydroxy-N-methyl-1-(6-methyl-4-(trifluoromethyl)pyridin-2-yl)-5-oxopyrrolidine-2-carboxamide]
26 | 31 nM | Cc1cc(C(F)(F)F)cc(N2C(=O)[C@@H](O)[C@@H](O)[C@H]2C(=O)N(C)c2cc(F)cc(Cl)c2)n1 [Example 68, (2S,3S,4S)-N-(3-Chloro-5-fluoro-phenyl)-3,4-dihydroxy-N-methyl-1-(6-methyl-4-(trifluoromethyl)pyridin-2-yl)-5-oxopyrrolidine-2-carboxamide]
27 | 69 nM | Cc1cc(C(F)(F)F)cc(N2C(=O)[C@H]3OC(C)(C)O[C@H]3[C@H]2C(=O)N(C)c2ccc(F)c(Cl)c2F)n1 [Example 69, (3aS,4S,6aS)—N-(3-Chloro-2,4-difluorophenyl)-N,2,2-trimethyl-5-(6-methyl-4-(trifluoromethyl)-pyridin-2-yl)-6-oxotetrahydro-4H-[1,3]dioxolo[4,5-c]pyrrole-4-carboxamide]

Row | Structure (SMILES) | IC50
28 | CO[C@H]1C[C@@H](C(=O)N(C)c2cccc(C)c2)N(c2nc(C)cc(C(F)(F)F)c2C#N)C1 [Example 36, (2S,4S)-1-(3-Cyano-6-methyl-4-(trifluoromethyl)pyridin-2-yl)-4-methoxy-N-methyl-N-(m-tolyl)pyrrolidine-2-carboxamide] | 48 nM

Same assay, conditions: read-out: Polθ IC50; full length N-His, C-term FLAG tagged Polθ, PicoGreen fluorescence, 12 point concentration response

Row | IC50 | Structure (SMILES)
29 | 7 nM | Cc1cccc(N(C)C(=O)[C@@H]2COC(=O)N2c2cc(C(F)(F)F)cc(C)n2)c1 [Example 58, (S)—N-Methyl-3-(6-methyl-4-(trifluoromethyl)pyridin-2-yl)-2-oxo-N-(m-tolyl)oxazolidine-4-carboxamide]
30 | 20 nM | CCN(C(=O)[C@@H]1[C@H](O)[C@H](O)C(=O)N1c1cc(C(F)(F)F)cc(C)n1)c1ccc(F)c(Cl)c1 [Example 66, (2S,3S,4S)-N-(3-Chloro-4-fluoro-phenyl)-N-ethyl-3,4-dihydroxy-1-(6-methyl-4-(trifluoromethyl)pyridin-2-yl)-5-oxopyrrolidine-2-carboxamide]
